The compounds below were run on NL-RLuc virus (recombinant HIV NL4-3 with Renilla Luciferase) in MT-2 cells (assay: Inhibition of HIV replication (NL-RLuc virus in MT-2 cells, luciferase readout)). Details: MT2, 120 h, NL-RLuc virus infecting MT-2 cells, 5 days of incubation, 10% FBS, luciferase quantitation; at least 2 experiments.
Type: cell-based, human immunodeficiency virus (HIV)
Text: Inhibition of HIV Replication:
A recombinant NL-RLuc proviral clone was constructed in which a section of the nef gene from NL4-3 was replaced with the Renilla Luciferase gene. This virus is fully infectious and can undergo multiple cycles of replication in cell culture. In addition, the luciferous reporter provides a simple and easy method for quantitating the extent of virus growth and consequently, the antiviral activity of test compounds. The plasmid pNLRLuc contains the proviral NL-Rluc DNA cloned into pUC 18 at the PvuII site. The NL-RLuc virus was prepared by transfection of 293T cells with the plasmid pNLRLuc. Transfections were performed using the LipofectAMINE PLUS kit from Invitrogen (Carlsbad, Calif.) according to the manufacturer and the virus generated was titered in MT-2 cells. For susceptibility analyses, the titrated virus was used to infect MT-2 cells in the presence of compound, and after 5 days of incubation, cells were processed and quantitated for virus growth by the amount of expressed luciferase. Assay media was RPMI 1640 supplemented with 10% heat inactivated fetal bovine serum (FBS), 100 units/ml penicillin G/100 units/ml streptomycin, 10 mM HEPES buffer pH 7.55 and 2 mM L-glutamine. The results from at least 2 experiments were used to calculate the EC50 values. Luciferase was quantitated using the Dual Luciferase kit from Promega (Madison, Wis.). Susceptibility of viruses to compounds was determined by incubation in the presence of serial dilutions of the compound. The 50% effective concentration (EC50) was calculated by using the exponential form of the median effect equation where (Fa)=1/[1+(ED50/drug conc.)^m] (Johnson V A, Byington R T. Infectivity Assay. In Techniques in HIV Research. ed. Aldovini A, Walker B D. 71-76. New York: Stockton Press. 1990).

SMILES	EC50
Cc1nc2cc3nn2c(c1[C@H](OC(C)(C)C)C(=O)O)N1CCC(C)(CC1)OCCCCc1ccccc1COC3 [Example 24, (2S)-2-(tert-Butoxy)-2-{4,24-dimethyl-11,23-dioxa-1,5,7,8-tetraazapentacyclo[22.2.2.1^6,^9.0^2,^7.0^13,^18]nonacosa-2,4,6(29),8,13(18),14,16-heptaen-3-yl}acetic acid]	3 nM
Cc1nc2cc3nn2c(c1[C@H](OC(C)(C)C)C(=O)O)N1CCC(C)(CC1)OCCCCc1cc(F)c(F)cc1COC3 [Example 68, (2S)-2-(tert-Butoxy)-2-{15,16-difluoro-4,24-dimethyl-11,23-dioxa-1,5,7,8-tetraazapentacyclo[22.2.2.1^6,^9.0^2,^7.0^13,^18]nonacosa-2,4,6(29),8,13(18),14,16-heptaen-3-yl}acetic acid]	1 nM
Cc1nc2cc3nn2c(c1[C@H](OC(C)(C)C)C(=O)O)N1CCC(C)(CC1)OCCCCCc1cccc(c1)COC3 [Example 59, (2S)-2-(tert-Butoxy)-2-{4,24-dimethyl-11,23-dioxa-1,5,7,8-tetraazapentacyclo[22.2.2.1^6,^9.1^13,^17.0^2,^7]triaconta-2,4,6(30),8,13(29),14,16-heptaen-3-yl}acetic acid]	16 nM
Cc1nc2cc3nn2c(c1[C@H](OC(C)(C)C)C(=O)O)N1CCC(C)(CC1)OCC=CCc1ccccc1C(=O)NC3 [Example 14, (2S)-2-(tert-Butoxy)-2-[4,24-dimethyl-12-oxo-23-oxa-1,5,7,8,11-pentaazapentacyclo[22.2.2.1^6,^9.0^2,^7.0^13,^18]nonacosa-2,4,6(29),8,13(18),14,16,20-octaen-3-yl]acetic acid]	45 nM
Cc1nc2cc3nn2c(c1[C@H](OC(C)(C)C)C(=O)O)N1CCC(C)(CC1)OCCCCCc1cc(F)ccc1CN(C1CC1)C3 [Example 62, (2S)-2-(tert-Butoxy)-2-{11-cyclopropyl-16-fluoro-4,25-dimethyl-24-oxa-1,5,7,8,11-pentaazapentacyclo[23.2.2.1^6,^9.0^2,^7.0^13,^18]triaconta-2,4,6(30),8,13(18),14,16-heptaen-3-yl}acetic acid]	41 nM
Cc1nc2cc3nn2c(c1[C@H](OC(C)(C)C)C(=O)O)N1CCC(C)(CC1)OCCCc1ccccc1CCC3 [Example 25, (2S)-2-(tert-Butoxy)-2-{4,23-dimethyl-22-oxa-1,5,7,8-tetraazapentacyclo[21.2.2.1^6,^9.0^2,^7.0^13,^18]octacosa-2,4,6(28),8,13(18),14,16-heptaen-3-yl}acetic acid]	31 nM
Cc1nc2cc3nn2c(c1[C@H](OC(C)(C)C)C(=O)O)N1CCC(C)(CC1)OCCCCOC(CC(C)C)c1cn(nn1)C3 (stereo partly drawn) [Example 12, (2S)-2-(tert-Butoxy)-2-[4,22-dimethyl-15-(2-methylpropyl)-16,21-dioxa-1,5,7,8,11,12,13-heptaazapentacyclo[20.2.2.1^6,^9.1^11,^14.0^2,^7]octacosa-2,4,6(28),8,12,14(27)-hexaen-3-yl]acetic acid]	136 nM
Cc1nc2cc3nn2c(c1[C@H](OC(C)(C)C)C(=O)O)N1CCC(C)(CC1)OCCCCOC(C(C)C)c1cn(nn1)C3 (stereo partly drawn) [Example 10, (2S)-2-(tert-Butoxy)-2-[4,22-dimethyl-15-(propan-2-yl)-16,21-dioxa-1,5,7,8,11,12,13-heptaazapentacyclo[20.2.2.1^6,^9.1^11,^14.0^2,^7]octacosa-2,4,6(28),8,12,14(27)-hexaen-3-yl]acetic acid]	251 nM
Cc1nc2cc3nn2c(c1[C@H](OC(C)(C)C)C(=O)O)N1CCC(C)(CC1)OCCCC[C@H](C)Oc1cc(Cl)ccc1COC3 [Example 35, (2S)-2-(tert-Butoxy)-2-[(20S)-16-chloro-4,20,26-trimethyl-11,19,25-trioxa-1,5,7,8-tetraazapentacyclo[24.2.2.1^6,^9.0^2,^7.0^13,^18]hentriaconta-2,4,6(31),8,13,15,17-heptaen-3-yl]acetic acid]	2 nM
Cc1nc2cc3nn2c(c1[C@H](OC(C)(C)C)C(=O)O)N1CCC(C)(CC1)OCCCCOc1cccc(c1)-c1cn(nn1)C3 [Example 6, (2S)-2-(tert-Butoxy)-2-{4,26-dimethyl-20,25-dioxa-1,5,7,8,11,12,13-heptaazahexacyclo[24.2.2.1^6,^9.1^11,^14.1^15,^19.0^2,^7]tritriaconta-2,4,6(33),8,12,14(32),15(31),16,18-nonaen-3-yl}acetic acid]	80 nM
Cc1cc2c(cc1Cl)COCc1cc3nc(C)c([C@H](OC(C)(C)C)C(=O)O)c(n3n1)N1CCC(C)(CC1)OCCCC[C@H](C)O2 [Example 69, (2S)-2-(tert-Butoxy)-2-[(20S)-15-chloro-4,16,20,26-tetramethyl-11,19,25-trioxa-1,5,7,8-tetraazapentacyclo[24.2.2.1^6,^9.0^2,^7.0^13,^18]hentriaconta-2,4,6(31),8,13,15,17-heptaen-3-yl]acetic acid]	12 nM
Cc1nc2cc3nn2c(c1[C@H](OC(C)(C)C)C(=O)O)N1CCC(C)(CC1)OCCCCCc1cc(F)ccc1COC3 [Example 60, (2S)-2-(tert-Butoxy)-2-{16-fluoro-4,25-dimethyl-1,24-dioxa-1,5,7,8-tetraazapentacyclo[23.2.2.1^6,^9.0^2,^7.0^13,^18]triaconta-2,4,6(30),8,13(18),14,16-heptaen-3-yl}acetic acid]	13 nM
Cc1nc2cc3nn2c(c1[C@H](OC(C)(C)C)C(=O)O)N1CCC(C)(CC1)OCCCCc1cc(F)ccc1COC3 [Example 66, (2S)-2-(tert-Butoxy)-2-{16-fluoro-4,24-dimethyl-11,23-dioxa-1,5,7,8-tetraazapentacyclo[22.2.2.1^6,^9.0^2,^7.0^13,^18]nonacosa-2,4,6(29),8,13(18),14,16-heptaen-3-yl}acetic acid]	4 nM
Cc1nc2cc3nn2c(c1[C@H](OC(C)(C)C)C(=O)O)N1CCC(C)(CC1)OCCCCc1cccc(c1)COC3 [Example 63, (2S)-2-(tert-Butoxy)-2-{4,23-dimethyl-11,22-dioxa-1,5,7,8-tetraazapentacyclo[21.2.2.1^6,^9.1^13,^17.0^2,^7]nonacosa-2,4,6(29),8,13(28),14,16-heptaen-3-yl}acetic acid]	16 nM

Same assay, conditions: NL-RLuc virus infecting MT-2 cells, 5 days of incubation, 10% FBS, luciferase quantitation; at least 2 experiments; read-out: EC50

SMILES	EC50
Cc1nc2cc3nn2c(c1[C@H](OC(C)(C)C)C(=O)O)N1CCC(C)(CC1)OCCC=COC(C)(C)c1cn(nn1)C3 [Example 4, (2S)-2-(tert-Butoxy)-2-[4,15,15,22-tetramethyl-16,21-dioxa-1,5,7,8,11,12,13-heptaazapentacyclo[20.2.2.1^6,^9.1^11,^14.0^2,^7]octacosa-2,4,6(28),8,12,14(27),17-heptaen-3-yl]acetic acid]	249 nM
Cc1ccc2c(c1)O[C@@H](C)C/C=C\COC1(C)CCN(CC1)c1c([C@H](OC(C)(C)C)C(=O)O)c(C)nc3cc(nn13)COC2 [Example 36, (2S)-2-(tert-Butoxy)-2-[(20S,22Z)-4,16,20,26-tetramethyl-11,19,25-trioxa-1,5,7,8-tetraazapentacyclo[24.2.2.1^6,^9.0^2,^7.0^13,^18]hentriaconta-2,4,6(31),8,13(18),14,16,22-octaen-3-yl]acetic acid]	3690 nM
Cc1nc2cc3nn2c(c1[C@H](OC(C)(C)C)C(=O)O)N1CCC(C)(CC1)OCCCC[C@H](C)Oc1cc(F)ccc1CCC3 [Example 40, (2S)-2-(tert-Butoxy)-2-[(20S)-16-fluoro-4,20,26-trimethyl-19,25-dioxa-1,5,7,8-tetraazapentacyclo[24.2.2.1^6,^9.0^2,^7.0^13,^18]hentriaconta-2,4,6(31),8,13(18),14,16-heptaen-3-yl]acetic acid]	31 nM

Same assay, conditions: {}

SMILES	EC50
Cc1ccc(C2CCCCOC3(C)CCN(CC3)c3c([C@H](OC(C)(C)C)C(=O)O)c(C)nc4cc(nn34)CO2)cc1 (stereo partly drawn) [Example 47, (2S)-2-(tert-butoxy)-2-[4,18-dimethyl-12-(4-methylphenyl)-11,17-dioxa-1,5,7,8-tetraazatetracyclo[16.2.2.1^6,^9.0^2,^7]tricosa-2,4,6(23),8-tetraen-3-yl]acetic acid]	1590 nM
Cc1nc2cc3nn2c(c1[C@H](OC(C)(C)C)C(=O)O)N1CCC(C)(CC1)OCCCCOC(C(C)C)c1cn(nn1)C3 (stereo partly drawn) [Example 11, (2S)-2-(tert-Butoxy)-2-[4,22-dimethyl-15-(propan-2-yl)-16,21-dioxa-1,5,7,8,11,12,13-heptaazapentacyclo[20.2.2.1^6,^9.1^11,^14.0^2,^7]octacosa-2,4,6(28),8,12,14(27)-hexaen-3-yl]acetic acid]	204 nM
Cc1nc2cc3nn2c(c1[C@H](OC(C)(C)C)C(=O)O)N1CCC(C)(CC1)OCCCCC(c1ccccc1)Oc1ccc(F)cc1COC3 (stereo partly drawn) [Example 52, (2S)-2-(tert-butoxy)-2-{15-fluoro-4,26-dimethyl-20-phenyl-11,19,25-trioxa-1,5,7,8-tetraazapentacyclo[24.2.2.1^6,^9.0^2,^7.0^13,^18]hentriaconta-2,4,6(31),8,13(18),14,16-heptaen-3-yl}acetic acid]	60 nM

— patent US9273067B2, “Pyrazolopyrimidine macrocycles as inhibitors of human immunodeficiency virus replication” (BRISTOL-MYERS SQUIBB COMPANY, priority 2014, dated 2016)
